# Test results: paper PMC12787000 (Molecules, 2025)
# What was measured:
# Format in all cases: cell-based
# A375 cells [1] = assay: MTT cell viability assay, A375; details: 72 h; for Effect on cell viability at single concentration: A375, 25 μM, MTT; for IC50: Homo sapiens, A-375, A375, MTT
# Experimental: (§1) A375, MRC-5, and HaCaT cell lines were obtained from the American Type Culture Collection (ATCC). 518A2 cell line was kindly provided by Dr. […]ć. All cell lines were cultured in RPMI 1640 medium supplemented with 2 g/L glucose, 10% fetal bovine serum (FBS), and antibiotics. […] Cell viability was assessed using the MTT assay (Sigma Aldrich, #M5655). […] After 72 h of incubation, absorbance was measured at 570 nm using a Multiskan SkyHigh microplate reader (Thermo Fisher Scientific, Helsinki, Finland). Values were corrected by subtracting the absorbance measured in wells containing cell-free medium with tested compounds.
# 518A2 cells = assay: MTT cell viability assay, 518A2; details: Homo sapiens; 518A2, MTT, 72 h
# Experimental: as §1
# A375R cells [2] = assay: MTT cell viability assay, vemurafenib-resistant A375R; details: for IC50: A375R, MTT, 72 h
# Experimental: as §1
# [3] = test system: HaCaT (human keratinocytes); assay: MTT cell viability assay, HaCaT; details: 72 h
# Experimental: as §1
# [4] = test system: MRC-5 (fetal fibroblasts); assay: MTT cell viability assay, MRC-5; details: Homo sapiens, MRC5; MRC-5, MTT, 72 h
# Experimental: as §1
# A375 cells [5] = assay: Cellular uptake and subcellular distribution by LC-MS/MS; details: A375, 25 μM, 24 h; for Compound accumulation normalized to telmisartan, Chromatin Bound: chromatin-bound nuclear fraction; for Compound accumulation normalized to telmisartan, Cytoplasm: cytoplasmic fraction; for Compound accumulation normalized to telmisartan, Cytoskeleton: cytoskeletal fraction; for Compound cell accumulation normalized to telmisartan, Whole Lysate: μmol compound per μg cell protein normalized to telmisartan
# Experimental: Cells were then trypsinized, washed with PBS and pelleted. For whole cell lysates, cell pellet was dissolved in RIPA buffer on ice. Fractions and whole cell lysates were stored at -80 °C until use. Protein concentration of lysates was determined with Pierce BCA Protein assay kit (Thermo Fisher #23225), and cell accumulation was calculated as μmol of compound per μg of cell protein and normalized to telmisartan. Concentrations of telmisartan and its derivatives were determined using liquid chromatography-tandem mass spectrometry (LC-MS/MS) method in positive HESI mode. The analysis was performed on UHPLC chromatograph […] (Thermo Fisher Scientific Inc., Madison, WI, USA), coupled to a triple quadrupole mass spectrometer TSQ Quantum Access MAX (Thermo Fisher Scientific Inc., Madison, WI, USA) with heated electrospray ionization (HESI) interface. The column was Zorbax Extend C18 (150 mm × 4.6 mm, 5 μm particle size). […] Experiment was repeated twice.
# AT1R = target: T1, AT1R (Homo sapiens, UniProt P30556); assay: Angiotensin II-induced Ca2+ release, Fluo-4 AM live-cell imaging; details: 2 min; for Effect on AngII-induced Ca2+ increase (combination treatment): A375, 25 μM compound + 1 μM AngII; for Effect of compound alone on baseline Ca2+ signaling: A375, compound alone
# T1 construct: endogenous in cells; host or cells: A375 melanoma cells (ATCC)
# T1 sequence (P30556 1-359): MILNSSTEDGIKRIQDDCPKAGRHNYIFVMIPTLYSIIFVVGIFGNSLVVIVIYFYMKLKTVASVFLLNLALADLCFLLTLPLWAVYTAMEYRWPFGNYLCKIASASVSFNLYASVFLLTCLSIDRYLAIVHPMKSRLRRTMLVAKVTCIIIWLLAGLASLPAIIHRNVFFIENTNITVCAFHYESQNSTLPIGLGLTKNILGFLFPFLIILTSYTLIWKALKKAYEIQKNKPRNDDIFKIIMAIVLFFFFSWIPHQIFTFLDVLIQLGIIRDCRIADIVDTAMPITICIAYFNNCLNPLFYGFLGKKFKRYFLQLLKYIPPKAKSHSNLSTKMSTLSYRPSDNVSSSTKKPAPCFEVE
# Experimental: Fluo-4 AM calcium indicator dye (F14201, Molecular Probes, Eugene, OR, USA) was used to observe Ca^2+ dynamics upon treatment, per manufacturer’s instructions. Briefly, 5000 A375 cells/well were seeded in 96-well optical bottom black cell culture plates (165305, Thermo Scientific). Fluo-4 AM stock solution in DMSO was mixed with equal volume of 20% Pluronic F-127 to assist in dispersion of AM esters before dilution into the loading medium. Twenty-four hours after seeding medium was removed, and cells were washed with HBBS without calcium and magnesium. Cells were stained in HBSS medium with 1.25 μM Fluo-4-AM for 30 min at 37 °C. After incubation, cells were washed and incubated in complete medium (10%FBS RPMI) to allow de-esterification for 30 min and then treated with 1 μM human Angiotensin II (A9525, Sigma Aldrich), 50 μM telmisartan, compounds 1, 3, and 8, or the combinations. Images were taken before addition of the treatment (0 min) and after 2 min of treatment on Zeiss PALM MicroBeam Axio Observer Z1 microscope (Carl Zeiss MicroImaging GmbH, Oberkochen, Germany) with Zeiss LD Plan-Neofluar 20×/0.4 Korr, ∞/0–1.5 mm lens and AxioVision SE64 Rel.4.9.1 software. Experiment was repeated three times. Integrated density of Fluo-4 fluorescence at 2 min of exposure to treatment was calculated with Image J, and normalized to the baseline fluorescence at time 0, in at least two random fields for each condition. Conditions were compared with one-way ANOVA and Tukey’s multiple comparisons test. p < 0.05 was considered statistically significant.
# A375 cells [6] = assay: Cell cycle distribution (PI, flow cytometry), A375; details: A375, 25 µM, 72 h
# Experimental: (§2) A375 and A375R cells were seeded in 6-well plates at a density of 150,000 cells per well. On the following day, the cells were treated with 25 µM concentrations of compounds 1, 3, and 8, as well as telmisartan. After 72 h of incubation, the cells were harvested using trypsin, washed with phosphate-buffered saline (PBS), fixed in ethanol, and stored at −20 °C until analysis. Ethanol-fixed cells were treated with RNase A (1 mg/mL) and stained with propidium iodide (PI; 400 µg/mL). A total of 20,000 events were recorded per sample. Quantitative analysis of the cell cycle phase distribution was performed by flow cytometry using a FACSCalibur flow cytometer (Becton Dickinson, San Jose, CA, USA) and BD CellQuest Pro Version 5.2.1 software. Experiment was performed three times. Cells under treatment were compared to controls for each cell phase separately with one-way ANOVA and Dunnett’s multiple comparison tests. p < 0.05 was considered statistically significant.
# A375R cells [7] = assay: Cell cycle distribution (PI, flow cytometry), A375R; details: 25 µM, 72 h
# Experimental: as §2
IC50 (A375 cells [1]) [µM],IC50 (A375R cells [2]) [µM],"Compound accumulation normalized to telmisartan, Chromatin Bound (A375 cells [5])","Compound accumulation normalized to telmisartan, Cytoplasm (A375 cells [5])","Compound accumulation normalized to telmisartan, Cytoskeleton (A375 cells [5])","Compound accumulation normalized to telmisartan, Membrane (A375 cells [5]; membrane fraction)","Compound cell accumulation normalized to telmisartan, Whole Lysate (A375 cells [5])",Accumulation in the membrane fraction (A375 cells [5]; membrane fraction) [µmol/L],SMILES,Effect on cell viability at single concentration (A375 cells [1]),IC50 (518A2 cells) [µM],IC50 [3] [µM],IC50 [4] [µM],Effect on AngII-induced Ca2+ increase (combination treatment) (AT1R),Effect of compound alone on baseline Ca2+ signaling (AT1R),Cell cycle distribution (A375 cells [6]),Cell cycle distribution (A375R cells [7]),"Selectivity (A375R cells [2]; A375R versus normal cell lines (HaCaT, MRC-5), from IC50 values)"
32.1 ± 2.38,21.1 ± 6.31,0.52,3.64,0.69,4.62,4.57,–,"CCCc1nc2c(C)cc(-c3nc4ccccc4n3C)cc2n1Cc1ccc(-c2ccccc2C(=O)NC(Cc2ccc(O)cc2)C(=O)O)cc1 (stereo not shown) [compound 3, 2-{[4′-(1,7′-dimethyl-2′-propyl-1H-[2,5′]bibenzoimidazolyl-3′-ylmethyl)-biphenyl-2-carbonyl]-amino}-3-(4-hydroxy-phenyl)-propionic acid]",significant reductions in cell viability,31 ± 2.38,63.46 ± 0.23,50.74 ± 0.28,did not prevent AngII-induced Ca^2+ increase,no significant changes in the baseline Ca^2+ signaling,"increased accumulation of cells in the subG1 phase, albeit not statistically significant",cell cycle profile comparable to that of the untreated control cells,–
27.2 ± 0.58,8.84 ± 1.24,11.90,11.17,7.44,–,4.41,26.814,"CCCc1nc2c(C)cc(-c3nc4ccccc4n3C)cc2n1Cc1ccc(-c2ccccc2C(=O)NC(Cc2ccccc2)C(=O)O)cc1 (stereo not shown) [compound 8, 2-{[4′-(1,7′-dimethyl-2′-propyl-1H-[2,5′]bibenzoimidazolyl-3′-ylmethyl)-biphenyl-2-carbonyl]-amino}-3-phenyl-propionic acid]",significant reductions in cell viability,28.4 ± 2.66,70.8 ± 6.99,31.5 ± 5.87,did not prevent AngII-induced Ca^2+ increase,no significant changes in the baseline Ca^2+ signaling,"increased accumulation of cells in the subG1 phase, albeit not statistically significant",cell accumulation in the G0/G1 phase,> 3.50
